The subject of data set [1] is FKBP51. As to conditions: cultured primary human decidual cells; cited from earlier work.
Data set [2] deals with maternal stress induced pregnant mice. In words: Maternal restraint stress induced preterm birth and fetal growth restriction in wild-type mice. In kind it is in vivo. The note with it: for litter size: 0.5 mg/kg daily i.p. GD14 to GD18, maternal stress administered mice; for maternal stress induced fetal growth restriction (pup birth weight) / maternal stress induced preterm birth (gestational length): 0.5 mg/kg daily i.p. GD14 to GD18, restraint stress GD8-GD18, vs placebo. The protocol: (§1) Wild-type adult female mice were mated with adult males by housing 1:1 for 4 h (9.00 am-1.00 pm). Pregnancy was confirmed by observing vaginal plug and the presence of sperm in vaginal smears, which was designated as gestation day (GD) 0 dpc (10.00 am). Time-mated pregnant mice were randomly assigned into non-stress or restraint stress (ST) groups. Restraint stress was administered in three sessions for 1 h using standard restraint chambers starting on GD 8 through GD 18, while the control group was left undisturbed during pregnancy. Before first restrained stress administration, daily intraperitoneal injection of CC #1 (0.5 mg/kg) or CC #2 (0.5 mg/kg) or placebo (PBS) was administered in ST-mice from GD14 to GD 18. The timing of delivery was monitored. Pups weight, litter size, numbers of live and dead pups were recorded.
as §1, with “Experimental design to test effects of CC #1 and CC #2 administration in maternal stress induced pregnant mice (FIG. 2). Wild-type adult” for “Wild-type adult”, “stress was performed in three” for “stress was administered in three”, “daily intraperitoneal (I.P.) injection of” for “daily intraperitoneal injection of”

In data set [3] the test system is FKBP51. The data set can be described thus: Dexamethasone-induced FKBP51 protein levels in decidual cell monolayers (immunoblot). The note with it: confluent leukocyte-free term decidual cells, 10^-7 M Dex + compound, 24 h. In kind it is cell-based. The protocol:
Three endogenous biochemicals (CC #1, CC #2, CC #3), which exist in human blood/tissues were tested as potential inhibitors of FKBP51 expression/action and confirmed that dexamethasone-induced inhibits FKBP51 expression in decidual cell cultures by all three compounds (FIG. 1).
For orientation: A western blot detects proteins with antibodies after separation by electrophoresis.

A further data set relates to Srd5a1 deficient mice. The note with it: Srd5a1 deficient mice (27% delivery rate without treatment); cited from earlier work.
For data set [4], the system named is Fkbp5+/+ and Fkbp5-/- mice. In words: Maternal dexamethasone or corticosterone injection, gestational length in Fkbp5+/+ or Fkbp5-/- mice. In kind it is in vivo. As to conditions: corticosterone 10 mg/kg s.c. daily E8 through E18, Fkbp5+/+ or Fkbp5-/- mice. The protocol:
Timing of Labor in Fkbp5^+/+ and Fkbp5^−/− Mice. To examine the effect of deletion of the Fkbp5 gene on birth timing, female Fkbp5^+/+ and Fkbp5^−/− mice (6-8 weeks-old) were mated with an adult Fkbp5^+/+ male (12-16 weeks old) by housing 1:1 for 4 h (9.00 am-1.00 pm). Pregnancy was confirmed by the presence of a vaginal plug or sperm in vaginal smears; gestational day (E) was designated at that time (10.00 am) as 0 dpc of pregnancy. The timing of delivery was monitored from E18 through E21 by observing mice every 4 h upon completion of delivery, and gestational length was calculated. Litter size, numbers of live and dead pups were recorded. Additionally, to determine whether there was a relative contribution of fetal genotype on birth timing, female Fkbp5^−/− mice were also mated with an adult male Fkbp5^−/− mice as described above and timing of labor was recorded.
Maternal Dexamethasone or Corticosterone injection. Dexamethasone-21-phosphate disodium salt (DEX; Sigma-Aldrich, St. Louis, MO) suspended in sterile PBS was administered intraperitoneally at 200 μg/kg. Corticosterone (CORT; Sigma-Aldrich) was dissolved in ethyl alcohol and diluted in PBS before injection and administered subcutaneously at 10 mg/kg. […]

On to `CC[C@@H]1C[C@H]2[C@@H]3CCC4=CC(=O)CC[C@@H]4[C@H]3CC[C@]2(C)[C@H]1C(=O)CO` [Organon 2058], for which, in the data set with FKBP51 [1], the FKBP51 levels result is listed as “minimal stimulatory effects”.

As to `CCCCCCCC/C(=C\CCCCCCCC(=O)O)[N+](=O)[O-]` [CC #2, 10-nitro-9E-octadecenoic acid], in data set [2], the litter size result is “did not affect litter size”, the “maternal stress induced fetal growth restriction (pup birth weight)” value is “prevent maternal stress induced FGR” and the “maternal stress induced preterm birth (gestational length)” value is reported as “prevent maternal stress induced PTB”. In addition, the “dexamethasone-induced FKBP51 protein levels” value in the data set on FKBP51 [3] is listed as “inhibits dexamethasone-induced FKBP51 protein levels”.

For the compound `CC(=O)O[C@]1(C(C)=O)CC[C@H]2[C@@H]3C[C@H](C)C4=CC(=O)CC[C@]4(C)[C@H]3CC[C@@]21C` [medroxyprogesterone acetate], the FKBP51 levels entry in the data set with FKBP51 [1] is listed as “up-regulated”.

As to `CN(C)c1ccc([C@H]2C[C@]3(C)[C@@H](CC[C@]3(O)CCCO)[C@@H]3CCC4=CC(=O)CCC4=C32)cc1` [ZK98299], the parturition rate in the data set with Srd5a1 deficient mice was 100%.

In the case of `C[C@]12C[C@H](O)[C@H]3[C@@H](CCC4=CC(=O)CC[C@@]43C)[C@@H]1CC[C@@H]2C(=O)CO` [corticosterone, Corticosterone], the gestational length entry in data set [4] is “did not shorten gestation”.

Turning to `CCCCCCCC/C=C(\CCCCCCCC(=O)O)[N+](=O)[O-]` [CC #3, 9-nitro-9E-octadecenoic acid], in the data set with FKBP51 [3], the “dexamethasone-induced FKBP51 protein levels” value is on record as “inhibits dexamethasone-induced FKBP51 protein levels”.

Turning to `CCCCC/C=C/C=C1/C(=O)C=C[C@@H]1C/C=C\CCCC(=O)O` [CC #1, 15-deoxy-Δ12,14-prostaglandin J2], in data set [2], the litter size result was “did not affect litter size”, the “maternal stress induced fetal growth restriction (pup birth weight)” value was “prevent maternal stress induced FGR” and the “maternal stress induced preterm birth (gestational length)” value is “prevent maternal stress induced PTB”. For the same compound, the “dexamethasone-induced FKBP51 protein levels” value in the data set with FKBP51 [3] is on record as “inhibits dexamethasone-induced FKBP51 protein levels”.

The values above are taken from patent publication US12409182B2, “Compositions and uses thereof for treatment of idiopathic preterm birth” (UNIVERSITY OF SOUTH FLORIDA, priority 2020, dated 2025).
